pIC50: −log10 of the molar value.
Columns and labels:
[1] = molecular target: GDP-bound NRAS wild-type protein (Homo sapiens, UniProt P01111); experiment: Binding to NRAS by surface plasmon resonance (SPR), KD and KD ratio to KRAS; settings: ratio of KD for GDP-bound NRAS wild-type protein to KD for KRAS
How it was run: (§1)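 GDP-bound biotin-Avi RAS captured at ~100–300 RU, 30°C, pH 7.4 HBS containing 10 µM GDP, 10 mM MgCl2, 1 mM DTT, 0.01% Tween 20 and 4% DMSO. KD by 1:1 fitting.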

HRAS wild-type protein = HRAS wild-type protein (Homo sapiens, UniProt P01112); experiment: Binding to HRAS by surface plasmon resonance (SPR), KD and KD ratio to KRAS; settings: ratio of KD for HRAS wild-type protein to KD for KRAS
Sequence of HRAS wild-type protein (P01112 whole entry): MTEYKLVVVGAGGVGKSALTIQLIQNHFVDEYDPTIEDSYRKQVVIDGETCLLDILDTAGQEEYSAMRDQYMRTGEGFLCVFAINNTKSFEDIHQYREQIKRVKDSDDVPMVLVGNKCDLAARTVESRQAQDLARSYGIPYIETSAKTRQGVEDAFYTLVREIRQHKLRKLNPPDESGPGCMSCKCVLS
How it was run: as §1

[2] = system: human lung cancer strain NCI-H441; assay type: cell-based
How it was run: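 Readout: […] after the ATP-based reagent. Compound: serial dilutions in dimethyl sulfoxide.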

Sequence of GDP-bound NRAS wild-type protein (P01111 whole entry): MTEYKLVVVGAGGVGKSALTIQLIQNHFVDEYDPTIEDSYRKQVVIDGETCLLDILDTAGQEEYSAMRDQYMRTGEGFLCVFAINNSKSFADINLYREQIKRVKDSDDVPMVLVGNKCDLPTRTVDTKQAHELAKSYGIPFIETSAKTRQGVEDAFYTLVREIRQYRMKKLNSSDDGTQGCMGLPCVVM

Row | Compound | NRAS /KRAS [1] | HRAS /KRAS (HRAS wild-type protein) | pIC50 [2]
1 | CCC[C@H]1C(=O)N[C@@H]([C@@H](C)CC)C(=O)N(C)CC(=O)N(C)[C@H]2C/C=C\CCN(C2=O)[C@@H](Cc2ccc(C(F)(F)F)cc2)C(=O)N(C)CC(=O)N[C@@H](CCc2ccc3c(C)cn(C)c3c2)C(=O)N2C[C@H](OCC)C[C@H]2C(=O)NC2(CC(C)(C)C2)C(=O)N(C)[C@@H](C(CC)CC)C(=O)N(C)[C@H](C(=O)N(C)C)CC(=O)N1C [PP2908] | AA (a compound having 20 or more is denoted as AA) | A (a compound having 10 or more and less than 20 is denoted as A) | 7.69
2 | C#CC[C@H]1C(=O)N[C@@H]([C@@H](C)CC)C(=O)N(C)CC(=O)N(C)[C@H]2C/C=C\CCN(C2=O)[C@@H](Cc2ccc(C(F)(F)F)cc2)C(=O)N(C)CC(=O)N[C@@H](CCc2ccc(C(F)(F)F)c(OC)c2)C(=O)N2CC[C@H]2C(=O)NC2(CC(C)(C)C2)C(=O)N(C)[C@@H](C2CCCC2)C(=O)N(C)[C@H](C(=O)N(C)C)CC(=O)N1C [PP2909] | B (a compound having 3 or more and less than 10 is denoted as B) | B (a compound having 3 or more and less than 10 is denoted as B) | 7.21
3 | C#CC[C@H]1C(=O)N[C@@H]([C@@H](C)CC)C(=O)N(C)CC(=O)N(C)[C@H]2C/C=C\CCN(C2=O)[C@@H](Cc2ccc(C(F)(F)F)cc2)C(=O)N(C)CC(=O)N[C@@H](CCc2ccc(C(F)(F)F)c(OC)c2)C(=O)N2CC[C@H]2C(=O)NC2(CCC2)C(=O)N(C)[C@@H](C2CCCC2)C(=O)N(C)[C@H](C(=O)N(C)C)CC(=O)N1C [PP2911] | A (a compound having 10 or more and less than 20 is denoted as A) | B (a compound having 3 or more and less than 10 is denoted as B) | 7.19
4 | CCC[C@H]1C(=O)N[C@@H]([C@@H](C)CC)C(=O)N(C)CC(=O)N(C)[C@H]2C/C=C\CCN(C2=O)[C@@H](Cc2ccc(C(F)(F)F)cc2)C(=O)N(C)CC(=O)N[C@@H](CCc2ccc3ccn(C)c3c2)C(=O)N2C[C@H](OCC)C[C@H]2C(=O)NC2(CC(C)(C)C2)C(=O)N(C)[C@@H](C(CC)CC)C(=O)N(C)[C@H](C(=O)N(C)C)CC(=O)N1C [PP2912] | AA (a compound having 20 or more is denoted as AA) | A (a compound having 10 or more and less than 20 is denoted as A) | 7.07
5 | CCCN(C)C(=O)[C@@H]1CC(=O)N(C)[C@@H](CC)C(=O)N[C@@H]([C@@H](C)CC)C(=O)N(C)CC(=O)N(C)[C@H]2C/C=C\CCN(C2=O)[C@@H](Cc2ccc(C(F)(F)F)cc2)C(=O)N(C)CC(=O)N[C@@H](CCc2cc(F)c(C(F)(F)F)c(F)c2)C(=O)N2C[C@H](OCC3CC3)C[C@H]2C(=O)NC2(CCC2)C(=O)N(C)[C@@H](C2CCCC2)C(=O)N1C [PP2913] | A (a compound having 10 or more and less than 20 is denoted as A) | A (a compound having 10 or more and less than 20 is denoted as A) | 7.99
6 | CCCN(C)C(=O)[C@@H]1CC(=O)N(C)[C@@H](CC)C(=O)N[C@@H]([C@@H](C)CC)C(=O)N(C)CC(=O)N(C)[C@H]2C/C=C\CCN(C2=O)[C@@H](Cc2ccc(C(F)(F)F)cc2)C(=O)N(C)CC(=O)N[C@@H](CCc2cc(F)c(C(F)(F)F)c(F)c2)C(=O)N2CC[C@H]2C(=O)NC2(CCC2)C(=O)N(C)[C@@H](C2CCCC2)C(=O)N1C [PP2915] | A (a compound having 10 or more and less than 20 is denoted as A) | A (a compound having 10 or more and less than 20 is denoted as A) | 6.89
7 | CCC(CC)[C@H]1C(=O)N(C)[C@H](C(=O)N(C)C)CC(=O)N(C)[C@@H](COC)C(=O)N[C@@H]([C@@H](C)CC)C(=O)N(C)CC(=O)N(C)[C@H]2C/C=C\CCN(C2=O)[C@@H](Cc2ccc(C(F)(F)F)cc2)C(=O)N(C)CC(=O)N[C@@H](CCc2cc(F)c(C(F)(F)F)c(F)c2)C(=O)N2CCCC[C@H]2C(=O)NC2(CC(C)(C)C2)C(=O)N1C [PP2916] | A (a compound having 10 or more and less than 20 is denoted as A) | A (a compound having 10 or more and less than 20 is denoted as A) | 6.97
8 | CCC(CC)[C@H]1C(=O)N(C)[C@H](C(=O)N(C)C)CC(=O)N(C)[C@@H](COC)C(=O)N[C@@H]([C@@H](C)CC)C(=O)N(C)CC(=O)N(C)[C@H]2C/C=C\CCN(C2=O)[C@@H](Cc2ccc(C(F)(F)F)cc2)C(=O)N(C)CC(=O)N[C@@H](CCc2cc(F)c(C(F)(F)F)c(F)c2)C(=O)N2CCOC[C@H]2C(=O)NC2(CC(C)(C)C2)C(=O)N1C [PP2917] | AA (a compound having 20 or more is denoted as AA) | A (a compound having 10 or more and less than 20 is denoted as A) | 6.89
9 | CCC(CC)[C@H]1C(=O)N(C)[C@H](C(=O)N(C)C)CC(=O)N(C)[C@@H](COC)C(=O)N[C@@H]([C@@H](C)CC)C(=O)N(C)CC(=O)N(C)[C@H]2C/C=C\CCN(C2=O)[C@@H](Cc2ccc(C(F)(F)F)cc2)C(=O)N(C)CC(=O)N[C@@H](CCc2cc(F)c(C(F)(F)F)c(F)c2)C(=O)N2CC[C@H]2C(=O)NC2(CC(C)(C)C2)C(=O)N1C [PP2918] | AA (a compound having 20 or more is denoted as AA) | A (a compound having 10 or more and less than 20 is denoted as A) | 6.90
10 | CCC[C@H]1C(=O)N[C@@H]([C@@H](C)CC)C(=O)N(C)CC(=O)N(C)[C@H]2C/C=C\CCN(C2=O)[C@@H](Cc2ccc(C(F)(F)F)cc2)C(=O)N(C)CC(=O)N[C@@H](CCc2ccc(Cl)c(Cl)c2)C(=O)N2CCOC[C@H]2C(=O)NC2(CC(C)(C)C2)C(=O)N(C)[C@@H](C(CC)CC)C(=O)N(C)[C@H](C(=O)N(C)C)CC(=O)N1C [PP2920] | AA (a compound having 20 or more is denoted as AA) | A (a compound having 10 or more and less than 20 is denoted as A) | 6.93
11 | CCC[C@H]1C(=O)N[C@@H]([C@@H](C)CC)C(=O)N(C)CC(=O)N(C)[C@H]2C/C=C\CCN(C2=O)[C@@H](Cc2ccc(C(F)(F)F)cc2)C(=O)N(C)CC(=O)N[C@@H](CCc2ccc(Cl)c(Cl)c2)C(=O)N2CC[C@H]2C(=O)NC2(CC(C)(C)C2)C(=O)N(C)[C@@H](C(CC)CC)C(=O)N(C)[C@H](C(=O)N(C)C)CC(=O)N1C [PP2921] | AA (a compound having 20 or more is denoted as AA) | A (a compound having 10 or more and less than 20 is denoted as A) | 6.80
12 | CCC[C@H]1C(=O)N[C@@H]([C@@H](C)CC)C(=O)N(C)CC(=O)N(C)[C@H]2C/C=C\CCN(C2=O)[C@@H](Cc2ccc(C(F)(F)F)cc2)C(=O)N(C)CC(=O)N[C@@H](CCc2ccc(C(F)(F)F)c(Cl)c2)C(=O)N2CCCC[C@H]2C(=O)NC2(CC(C)(C)C2)C(=O)N(C)[C@@H](C(CC)CC)C(=O)N(C)[C@H](C(=O)N(C)C)CC(=O)N1C [PP2928] | AA (a compound having 20 or more is denoted as AA) | A (a compound having 10 or more and less than 20 is denoted as A) | 6.77
13 | CCC[C@H]1C(=O)N[C@@H]([C@@H](C)CC)C(=O)N(C)CC(=O)N(C)[C@H]2C/C=C\CCN(C2=O)[C@@H](Cc2ccc(C(F)(F)F)cc2)C(=O)N(C)CC(=O)N[C@@H](CCc2ccc(C(F)(F)F)c(Cl)c2)C(=O)N2CCOC[C@H]2C(=O)NC2(CC(C)(C)C2)C(=O)N(C)[C@@H](C(CC)CC)C(=O)N(C)[C@H](C(=O)N(C)C)CC(=O)N1C [PP2929] | AA (a compound having 20 or more is denoted as AA) | A (a compound having 10 or more and less than 20 is denoted as A) | 7.04
14 | CCC[C@H]1C(=O)N[C@@H]([C@@H](C)CC)C(=O)N(C)CC(=O)N(C)[C@H]2C/C=C\CCN(C2=O)[C@@H](Cc2ccc(C(F)(F)F)cc2)C(=O)N(C)CC(=O)N[C@@H](CCc2ccc(C(F)(F)F)c(OC)c2)C(=O)N2CCCC[C@H]2C(=O)NC2(CC(C)(C)C2)C(=O)N(C)[C@@H](C(CC)CC)C(=O)N(C)[C@H](C(=O)N(C)C)CC(=O)N1C [PP2934] | AA (a compound having 20 or more is denoted as AA) | A (a compound having 10 or more and less than 20 is denoted as A) | 6.97
15 | CCC[C@H]1C(=O)N[C@@H]([C@@H](C)CC)C(=O)N(C)CC(=O)N(C)[C@H]2C/C=C\CCN(C2=O)[C@@H](Cc2ccc(C(F)(F)F)cc2)C(=O)N(C)CC(=O)N[C@@H](CCc2ccc(C(F)(F)F)c(OC)c2)C(=O)N2CCOC[C@H]2C(=O)NC2(CC(C)(C)C2)C(=O)N(C)[C@@H](C(CC)CC)C(=O)N(C)[C@H](C(=O)N(C)C)CC(=O)N1C [PP2935] | A (a compound having 10 or more and less than 20 is denoted as A) | A (a compound having 10 or more and less than 20 is denoted as A) | 7.30
16 | CCC[C@H]1C(=O)N[C@@H]([C@@H](C)CC)C(=O)N(C)CC(=O)N(C)[C@H]2C/C=C\CCN(C2=O)[C@@H](Cc2ccc(C(F)(F)F)cc2)C(=O)N(C)CC(=O)N[C@@H](CCc2ccc(C(F)(F)F)c(OC)c2)C(=O)N2CC[C@H]2C(=O)NC2(CC(C)(C)C2)C(=O)N(C)[C@@H](C(CC)CC)C(=O)N(C)[C@H](C(=O)N(C)C)CC(=O)N1C [PP2936] | AA (a compound having 20 or more is denoted as AA) | A (a compound having 10 or more and less than 20 is denoted as A) | 6.73

From EP4603105A1, “PHARMACEUTICAL COMPOSITION CONTAINING CYCLIC COMPOUND HAVING SELECTIVE KRAS INHIBITORY EFFECT AGAINST HRAS AND NRAS” (CHUGAI SEIYAKU KABUSHIKI KAISHA, priority 2022, dated 2024)
